Experimental data as given in PubChem BioAssay (NCI).
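Following 48 hours of exposure in 96-well plates, responses at five concentrations were used to interpolate endpoints linearly. At the GI50, growth is halved. Definition used: TGI = concentration required for complete inhibition of growth.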

Key:
Experiment in all cases: growth of human tumour cells (NCI), 48 h
U251 CNS = tested on: U251 CNS
SR leukemia = tested on: SR leukemia
NCI-H460 lung = tested on: NCI-H460 lung
786-0 renal = tested on: 786-0 renal
OVCAR-8 ovarian = tested on: OVCAR-8 ovarian
A498 renal = tested on: A498 renal
SNB-75 CNS = tested on: SNB-75 CNS
K-562 leukemia = tested on: K-562 leukemia
HOP-92 NSCLC = tested on: HOP-92 NSCLC
MCF7 breast = tested on: MCF7 breast

Row | Structure (SMILES) | TGI (U251 CNS) | TGI (SR leukemia) | TGI (NCI-H460 lung) | TGI (786-0 renal) | TGI (OVCAR-8 ovarian) | TGI (A498 renal) | TGI (SNB-75 CNS) | TGI (K-562 leukemia) | TGI (HOP-92 NSCLC) | GI50 (U251 CNS) | GI50 (SR leukemia) | GI50 (NCI-H460 lung) | GI50 (786-0 renal) | GI50 (OVCAR-8 ovarian) | GI50 (K-562 leukemia) | GI50 (HOP-92 NSCLC) | GI50 (MCF7 breast) | TGI (MCF7 breast) | GI50 (SNB-75 CNS) | GI50 (A498 renal)
1 | CCOC(=O)Cn1c(=O)n(C)c(=O)c2c1ncn2Cc1ccccc1 | > 100 µM | > 100 µM | > 100 µM | > 100 µM | > 100 µM | > 100 µM | > 100 µM | > 100 µM | > 100 µM | – | – | – | – | – | – | – | – | – | – | –
2 | COC1=C(Br)C(=O)c2nc(C)ccc2C1=O | 28.5 µM | 6.79 µM | 31.7 µM | 27.2 µM | 16.6 µM | 36.4 µM | 33.8 µM | > 27.8 µM | 15.5 µM | – | – | – | – | – | – | – | – | – | – | –
3 | CC1CN1c1c(C(=O)/C=C/c2ccc(Cl)cc2)c(-c2ccccc2)nn(C)c1=O (stereo not given) | 5.36 µM | – | 4.12 µM | 8.95 µM | 5.67 µM | > 10 µM | 8.28 µM | 8.8 µM | > 10 µM | – | – | – | – | – | – | – | – | – | – | –
4 | CC(C(=O)n1c2ccccc2c2ccccc21)N(c1ccccc1)c1ccccc1 (stereo not given) | 34.7 µM | 27.7 µM | > 100 µM | 30.2 µM | 37.7 µM | – | 37.8 µM | 40.7 µM | – | – | – | – | – | – | – | – | – | – | – | –
5 | Clc1ccc(N=CNc2ccc(-c3nc4ccccc4o3)cc2)cc1 | 91.3 µM | > 100 µM | 40.3 µM | > 100 µM | 40.9 µM | – | – | > 100 µM | > 100 µM | 23.4 µM | 40.6 µM | 17.1 µM | 34.6 µM | 21.1 µM | 32.6 µM | 57.1 µM | – | – | – | –
6 | COC(=O)/C(=C\c1ccc(N(CCC#N)CCC#N)cc1)NC(=O)c1cc([N+](=O)[O-])ccc1Cl | > 100 µM | 81.5 µM | > 100 µM | > 100 µM | > 100 µM | > 100 µM | > 100 µM | > 100 µM | – | – | – | – | – | – | – | – | – | – | – | –
7 | O=C(N/N=C/c1ccc([N+](=O)[O-])o1)c1ccc(O)cc1 | > 100 µM | > 100 µM | > 100 µM | 21.4 µM | > 100 µM | – | 83.2 µM | – | 80.9 µM | 5.17 µM | 2.84 µM | 3.37 µM | 9.17 µM | 4.86 µM | – | 17.5 µM | 2.84 µM | 14 µM | 17.4 µM | –
8 | OCCNCCOc1ccc(/C(=C(/Cl)c2ccccc2)c2ccccc2)cc1 | 21.1 µM | 12.5 µM | 18.2 µM | 22.2 µM | 28 µM | – | 8.46 µM | 11 µM | – | – | – | – | – | – | – | – | – | – | – | –
9 | COc1cc(C(=O)N2CCc3c([nH]c4c([N+](=O)[O-])c(OC)ccc34)C2C)cc(OC)c1OC (stereo not given) | > 100 µM | > 100 µM | > 100 µM | > 100 µM | > 100 µM | > 100 µM | 98.3 µM | > 100 µM | – | – | – | – | – | – | – | – | – | – | – | –
10 | CC1=C(c2cc(C(=O)Nc3ccc(Cl)cc3)nc(=S)[nH]2)Sc2ccccc2N1 | > 100 µM | – | > 100 µM | > 100 µM | > 100 µM | > 100 µM | > 100 µM | > 100 µM | > 100 µM | – | – | – | – | – | – | – | – | – | – | –
11 | COC(=O)c1cc(/C=C/c2ccc(S(N)(=O)=O)cc2)ccc1O | > 100 µM | – | 66.4 µM | > 100 µM | > 100 µM | 20.2 µM | > 100 µM | > 100 µM | > 100 µM | 18.8 µM | – | 27.5 µM | 7.35 µM | 27.3 µM | > 100 µM | 25.7 µM | 30.7 µM | > 100 µM | 57 µM | 0.0161 µM
12 | C=CCN1CC2CON(C(=O)C(OC)(c3ccccc3)C(F)(F)F)C2C1C(C)C (stereo not given) | – | 65.1 µg/mL | – | – | – | 92 µg/mL | – | – | – | 29.8 µg/mL | 11.1 µg/mL | 28.9 µg/mL | 26.7 µg/mL | 57.7 µg/mL | – | – | 26.2 µg/mL | 78.7 µg/mL | 38.4 µg/mL | 23.5 µg/mL
13 | Clc1cc(Cl)cc(Nc2ccc3cc(OCCCN4CCOCC4)ccc3n2)c1 | – | – | – | 3.11 µM | > 100 µM | 8.78 µM | – | 4.42 µM | 5.01 µM | – | – | – | 1.58 µM | 4.36 µM | 1.58 µM | 1.63 µM | – | – | – | 1.93 µM
14 | O/C(=C\c1nc2ccccc2nc1NC12CC3CC(CC(C3)C1)C2)c1ccc(Br)cc1 | > 10 µM | – | > 10 µM | > 10 µM | > 10 µM | > 10 µM | > 10 µM | > 10 µM | – | – | – | – | – | – | – | – | – | > 10 µM | – | –
15 | C=CCn1c2c(sc1=S)C(S)N=CN2 (stereo not given) | > 100 µM | > 100 µM | > 100 µM | > 100 µM | > 100 µM | > 100 µM | > 100 µM | > 100 µM | 55 µM | – | – | – | – | – | – | – | – | – | – | –
16 | O=C(O)CSc1n[nH]c(Cc2ccccc2)n1 | > 100 µM | > 100 µM | > 100 µM | > 100 µM | > 100 µM | – | – | > 100 µM | > 100 µM | – | – | – | – | – | – | – | – | – | – | –
17 | CC1=C(C(=O)NNS(=O)(=O)c2ccc(C)cc2)CC(C(=O)NNS(=O)(=O)c2ccc(C)cc2)=C(C)N1 | > 100 µM | > 100 µM | > 100 µM | > 100 µM | > 100 µM | – | – | > 100 µM | – | – | – | – | – | – | – | – | – | – | – | –
18 | CCC(=O)Nc1ccc(N=NN(C)C)cc1 | > 100 µM | – | > 100 µM | > 100 µM | > 100 µM | > 100 µM | > 100 µM | > 100 µM | 90.2 µM | – | – | – | – | – | – | – | – | > 100 µM | – | –
19 | CCOc1ccccc1NC(=O)C(=O)Cc1nc2ccccc2s1 | > 100 µM | > 100 µM | > 100 µM | > 100 µM | > 100 µM | > 100 µM | > 100 µM | – | > 100 µM | – | – | – | – | – | – | – | – | – | – | –
20 | O=C1C(=O)N(c2cc(Cl)ccc2Cl)C(=O)C(=O)C1c1nc2ccccc2o1 | > 100 µM | – | > 100 µM | > 100 µM | > 100 µM | > 100 µM | > 100 µM | > 100 µM | > 100 µM | – | – | – | – | – | – | – | – | – | – | –
21 | N.N.NCCCCCCCCCN.O=C([O-])CC(=O)[O-].O=C([O-])CC(=O)[O-].[Pt+4].[Pt+4] | > 100 µM | – | > 100 µM | > 100 µM | > 100 µM | > 100 µM | > 100 µM | > 100 µM | > 100 µM | 95.2 µM | – | 25.8 µM | 85.8 µM | > 100 µM | > 100 µM | > 100 µM | – | – | > 100 µM | > 100 µM
22 | Cc1cccc(N=C2NC(=O)C(CC(=O)Nc3cccc(C)c3C)S2)c1 (stereo not given) | > 100 µM | – | > 100 µM | > 100 µM | > 100 µM | – | > 100 µM | – | > 100 µM | – | – | – | – | – | – | – | – | – | – | –
